{"source": "paper PMC11954145", "about": "“Antimicrobial and ADME properties of methoxylated, methylated and nitrated 2-hydroxynaphthalene-1 carboxanilides” (ADMET & DMPK, 2025)", "key": {"E. coli ATCC 25922": {"test_system": "E. coli ATCC 25922", "test": "Antibacterial screening, broth microdilution MIC", "format": "cell-based", "conditions": "Escherichia coli, ATCC25922; ATCC 25922, 24 h at 37 °C"}, "VRE 342B": {"test_system": "VRE 342B", "test": "Antibacterial screening, broth microdilution MIC", "format": "cell-based, vancomycin-resistant E. faecalis", "conditions": "Enterococcus, vanA isolate, 24 h at 37 °C, read-out: MIC VRE 342B"}, "VRE 725B": {"test_system": "VRE 725B", "test": "Antibacterial screening, broth microdilution MIC", "format": "cell-based, vancomycin-resistant E. faecalis", "conditions": "Enterococcus, vanA isolate, 24 h at 37 °C, read-out: MIC VRE 725B"}, "S. aureus ATCC 29213": {"test_system": "S. aureus ATCC 29213", "test": "Antibacterial screening, broth microdilution MIC", "format": "cell-based", "conditions": "Staphylococcus aureus, ATCC29213; ATCC 29213, 24 h at 37 °C; read-out: MIC S. aureus"}, "VRE 368": {"test_system": "VRE 368", "test": "Antibacterial screening, broth microdilution MIC", "format": "cell-based, vancomycin-resistant E. faecalis", "conditions": "Enterococcus, vanA isolate, 24 h at 37 °C, read-out: MIC VRE 368"}, "MRSA SA 3202": {"test_system": "MRSA SA 3202", "test": "Antibacterial screening, broth microdilution MIC", "format": "cell-based, methicillin-resistant S. aureus", "conditions": "Staphylococcus aureus, clinical isolate, 24 h at 37 °C, read-out: MIC MRSA SA 3202"}, "[1]": {"test": "Lipophilicity determination by RP-HPLC (log k, log D)", "format": "physicochemical", "method_in_brief": "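Isocratic RP-HPLC on a C18 column at 40 °C, UV detection at 210 nm, dead time from KI. Log k used MeOH/H2O 72:28, log D used MeOH/acetate-buffered saline (pH 7.4 or 6.5) 72:28. k and D were calculated as (tR–tD)/tD, three replicates.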"}, "MRSA 63718 [2]": {"test_system": "MRSA 63718", "test": "Antibacterial screening, broth microdilution MIC", "format": "cell-based, methicillin-resistant S. aureus", "conditions": "Staphylococcus aureus, clinical isolate, 24 h at 37 °C, read-out: MIC MRSA 63718"}, "[3]": {"test_system": "Mycobacterium smegmatis ATCC 700084", "test": "Antimycobacterial screening, broth dilution MIC", "format": "cell-based", "conditions": "Mycolicibacterium smegmatis, ATCC700084, 72 h; ATCC 700084, 3 days at 37 °C; read-out: MIC M. smegmatis"}, "[4]": {"test_system": "Enterococcus faecalis ATCC 29212", "test": "Antibacterial screening, broth microdilution MIC", "format": "cell-based", "conditions": "ATCC29212, ATCC 29212, 24 h at 37 °C, read-out: MIC E. faecalis"}, "MRSA SA 630": {"test_system": "MRSA SA 630", "test": "Antibacterial screening, broth microdilution MIC", "format": "cell-based, methicillin-resistant S. aureus", "conditions": "Staphylococcus aureus, clinical isolate, 24 h at 37 °C, read-out: MIC MRSA SA 630"}, "[5]": {"test_system": "Mycobacterium tuberculosis ATCC 25177/H37Ra", "test": "Antimycobacterial screening, broth dilution MIC (Alamar blue)", "format": "cell-based", "conditions": "336 h, H37Ra, 14 days at 37 °C, Alamar blue, read-out: MIC M. tuberculosis", "method_in_brief": "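Broth microdilution in Middlebrook 7H9 with ADC, compounds twofold from 256 to 0.125 μg mL^-1, 1.5×10^6 M. tuberculosis cells per well, 14 days at 37 °C. Alamar blue was then added for 24 h. MIC is the lowest concentration preventing blue resazurin turning pink resorufin; three repeats.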"}, "[6]": {"test_system": "human monocytic leukemia THP-1 cells", "conditions": "cited from earlier work"}, "[7]": {"test_system": "Mycobacterium kansasii DSM 44162", "test": "Antimycobacterial screening, broth dilution MIC", "format": "cell-based", "conditions": "DSM44162, 336 h, read-out: MIC M. kansasii"}, "MRSA 63718 [8]": {"test_system": "MRSA 63718", "parameters": "method as in PMID 25692135", "conditions": "cited from earlier work"}, "[9]": {"test_system": "Mycobacterium kansasii DSM 44162", "parameters": "method as in PMID 23924993", "conditions": "previously published monosubstituted derivatives; cited from earlier work"}}, "data": [{"smiles": "O=C(Nc1cccc([N+](=O)[O-])c1)c1c(O)ccc2ccccc12", "note": "[Compound 25, 2-hydroxy-N-(3-nitrophenyl)naphthalene-1-carboxamide]", "values": [{"measurement": "MIC", "setting": "E. coli ATCC 25922", "result": 830, "unit": "µM"}, {"measurement": "MIC", "setting": "VRE 342B", "result": 830, "unit": "µM"}, {"measurement": "MIC", "setting": "VRE 725B", "result": 830, "unit": "µM"}, {"measurement": "MIC", "setting": "S. aureus ATCC 29213", "result": 208, "unit": "µM"}, {"measurement": "MIC", "setting": "VRE 368", "result": 830, "unit": "µM"}, {"measurement": "MIC", "setting": "MRSA SA 3202", "result": 208, "unit": "µM"}, {"measurement": "log D6.5", "setting": "[1]; RP-HPLC C18, MeOH 72 % / acetate-buffered saline pH 6.5", "result": 0.3462}, {"measurement": "log D7.4", "setting": "[1]; RP-HPLC C18, MeOH 72 % / acetate-buffered saline pH 7.4", "result": 0.3058}, {"measurement": "log k (logarithm of the capacity factor)", "setting": "[1]; RP-HPLC C18, MeOH 72 % / water 28 %", "result": 0.4882}, {"measurement": "MIC", "setting": "MRSA 63718 [2]", "result": 26, "unit": "µM"}, {"measurement": "MIC", "setting": "[3]", "result": 208, "unit": "µM"}, {"measurement": "MIC", "setting": "[4]", "result": 830, "unit": "µM"}, {"measurement": "MIC", "setting": "MRSA SA 630", "result": 208, "unit": "µM"}, {"measurement": "MIC", "setting": "[5]", "result": 104, "unit": "µM"}, {"measurement": "CC50", "setting": "[6]", "result": "> 20", "unit": "µM"}, {"measurement": "MIC", "setting": "[7]", "result": 104, "unit": "µM"}]}, {"smiles": "CN[C@H](CC(C)C)C(=O)N[C@H]1C(=O)N[C@@H](CC(N)=O)C(=O)N[C@H]2C(=O)N[C@H]3C(=O)N[C@H](C(=O)N[C@H](C(=O)O)c4cc(O)cc(O)c4-c4cc3ccc4O)[C@H](O)c3ccc(c(Cl)c3)Oc3cc2cc(c3O[C@@H]2O[C@H](CO)[C@@H](O)[C@H](O)[C@H]2O[C@H]2C[C@](C)(N)[C@H](O)[C@H](C)O2)Oc2ccc(cc2Cl)[C@H]1O", "note": "[vancomycin]", "values": [{"measurement": "MIC of vancomycin", "setting": "MRSA 63718 [8]", "result": 2, "unit": "µg/mL"}]}, {"smiles": "O=C(Nc1ccc(Br)cc1)c1c(O)ccc2ccccc12", "note": "[N-(4-bromophenyl)-2-hydroxynaphthalene-1-carboxamide]", "values": [{"measurement": "MIC M. kansasii", "setting": "[9]", "result": 93, "unit": "µM"}]}, {"smiles": "O=C(Nc1ccc(C(F)(F)F)cc1)c1c(O)ccc2ccccc12", "note": "[2-hydroxy-N-(4-trifluoromethylphenyl)naphthalene-1-carboxamide]", "values": [{"measurement": "MIC M. kansasii", "setting": "[9]", "result": 23, "unit": "µM"}]}]}
